A word on the IC50: it is the concentration needed to halve the response being measured.

Where two headings read alike, the source gives them in different places. Some results are limits rather than exact numbers.

This assay deals with HIV-1 (HIVIIIB) replication in MT2 cell line. Nature of the assay: HIV-1 replication in MT2 cell line with and without 30% human serum (viral RT activity in supernatant). The assay is classed as cell-based. As to conditions: Human immunodeficiency virus 1, MT2 cells, average IC50 if tested more than once. In outline: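 MT2 cells infected with HIV-1 IIIB at MOI 0.5 for 3 h, washed, seeded at 0.5×10^6/ml in RPMI/10% FBS with serially diluted compound, with or without 30% human serum; medium and compound refreshed on day 3. RT activity in supernatant at day 5; IC50 and IC90 derived.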

[1] abbreviates: with 30% human serum, read-out: MT2 (HIVIIIB) with HS 30% IC50 range.
Setting [2] is: without human serum, read-out: MT2 (HIVIIIB) IC50 range.

As to `CC(=O)N[C@@]12CC[C@]3(C)[C@H](CC[C@@H]4[C@@]5(C)CC[C@H](OC(=O)CC(C)(C)C(=O)O)C(C)(C)[C@@H]5CC[C@]43C)C1=C(C(C)C)C(=O)C2` [19-1, 3β-O-(3′,3′-Dimethylsuccinyl)-17β-acetylamino-21-oxolup-18-ene], the IC50 was below 199 nM under setting [1] and below 199 nM under setting [2].
With `CC(C)C1=C2[C@H]3CC[C@@H]4[C@@]5(C)CC[C@H](OC(=O)CC(C)(C)C(=O)O)C(C)(C)[C@@H]5CC[C@@]4(C)[C@]3(C)CC[C@@]2(NC(=O)[C@@H]2CCCN2C)CC1=O` [19-42], the IC50 under setting [1] was below 199 nM.
As to `CCNC(=O)N[C@@]12CC[C@]3(C)[C@H](CC[C@@H]4[C@@]5(C)CC[C@H](OC(=O)CC(C)(C)C(=O)O)C(C)(C)[C@@H]5CC[C@]43C)C1=C(C(C)C)C(=O)C2` [17-2, 3β-O-(3′,3′-Dimethylsuccinyl)-17β-[N′-(ethyl)ureido]-21-oxolup-18-ene], the IC50 reads like this: under setting [1], below 199 nM; under setting [2], below 199 nM.
Regarding `CC(C)C1=C2C3CCC4[C@@]5(C)CC[C@H](OC(=O)CC(C)(C)C(=O)O)C(C)(C)C5CC[C@@]4(C)[C@]3(C)CC[C@@]2(NC(=O)N2CCC(F)(F)CC2)CC1=O` (stereo partly drawn) [17-59, 3β-O-(3′,3′-Dimethylsuccinyl)-17β-[(4,4-difluoro-piperidine-1-carbonyl)-amino]-21-oxolup-18-ene], the IC50 under setting [1] was below 199 nM.
The same measure, in the same setting: then `CC(C)C1=C2[C@H]3CC[C@@H]4[C@@]5(C)CC[C@H](OC(=O)CC(C)(C)C(=O)O)C(C)(C)C5CC[C@@]4(C)[C@]3(C)CC[C@@]2(NC(=O)NC[C@@H]2CCCN2)CC1=O` (stereo partly drawn) [17-38, 3β-O-(3′,3′-Dimethylsuccinyl)-17β-(3-(S)-1-pyrrolidin-2-ylmethyl-ureido)-21-oxolup-18-ene], with below 199 nM.
Same read-out and setting: as for `CC(C)C1=C2C3CCC4[C@@]5(C)CC[C@H](OC(=O)CC(C)(C)C(=O)O)C(C)(C)C5CC[C@@]4(C)[C@]3(C)CC[C@@]2(NC(=O)NC2(c3ccccc3)CC2)CC1=O` (stereo partly drawn) [17-66, 3β-O-(3′,3′-Dimethylsuccinyl)-17β-[N′-(1-phenyl-cyclopropyl)-ureido]-21-oxolup-18-ene], the figure is below 199 nM; as for `CC(C)C1=C2[C@H]3CC[C@@H]4[C@@]5(C)CC[C@H](OC(=O)CC(C)(C)C(=O)O)C(C)(C)[C@@H]5CC[C@@]4(C)[C@]3(C)CC[C@@]2(NC(=O)c2ccn(C)n2)CC1=O` [19-17, 3β-O-(3′,3′-Dimethylsuccinyl)-17β-(1-methyl-1H-pyrazole-3-amido)-21-oxolup-18-ene], below 199 nM.
In the case of `CC(C)C1=C2[C@H]3CC[C@@H]4[C@@]5(C)CC[C@H](OC(=O)CC(C)(C)C(=O)O)C(C)(C)[C@@H]5CC[C@@]4(C)[C@]3(C)CC[C@@]2(NC(=O)CCN2CCCCC2)CC1=O` [19-40, 3β-O-(3′,3′-Dimethylsuccinyl)-17β-(3-piperidin-1-yl-propionamido)-21-oxolup-18-ene], under setting [1], the IC50 is below 199 nM.
Turning to `CC(C)C1=C2C3CCC4[C@@]5(C)CC[C@H](OC(=O)CC(C)(C)C(=O)O)C(C)(C)C5CC[C@@]4(C)[C@]3(C)CC[C@@]2(NC(=O)N2CC[C@@H](N)C2)CC1=O` (stereo partly drawn) [17-42, 3β-O-(3′,3′-Dimethylsuccinyl)-17β-[((R)-3-amino-pyrrolidine-1-carbonyl)-amino]-21-oxolup-18-ene], the IC50 under setting [1] is 200 to 999 nM.
For `CC(C)C1=C2C3CCC4[C@@]5(C)CC[C@H](OC(=O)CC(C)(C)C(=O)O)C(C)(C)C5CC[C@@]4(C)[C@]3(C)CC[C@@]2(NC(=O)O[C@@H]2CCN(C)C2)CC1=O` (stereo partly drawn) [20-13, 3β-O-(3′,3′-Dimethylsuccinyl)-17β-((R)-1-methylpyrrolidine-3-oxycarbonylamino)-21-oxolup-18-ene], the IC50 under setting [1] was below 199 nM.
`CC(C)C1=C2C3CCC4[C@@]5(C)CC[C@H](OC(=O)CC(C)(C)C(=O)O)C(C)(C)C5CC[C@@]4(C)[C@]3(C)CC[C@@]2(NC(=O)NC(C)(C)C)CC1=O` (stereo partly drawn) [17-5, 3β-O-(3′,3′-Dimethylsuccinyl)-17β-[N′-(tert-butyl)ureido]-21-oxolup-18-ene]: the IC50 is, setting by setting: under setting [1], below 199 nM; under setting [2], below 199 nM.
Turning to `CC(C)C1=C2C3CCC4[C@@]5(C)CC[C@H](OC(=O)[C@H]6CCC[C@@H](C(=O)O)C6)C(C)(C)C5CC[C@@]4(C)[C@]3(C)CC[C@@]2(N)CC1=O` (stereo partly drawn) [15-2, 3β-O-(cis-Cyclohexane-3′-carboxylic acid-1′-carboxyl)-17β-amino-21-oxolup-18-ene], the IC50 under setting [1] was above 1000 nM.
Take `CC(C)C1=C2[C@H]3CC[C@@H]4[C@@]5(C)CC[C@H](OC(=O)CC(C)(C)C(=O)O)C(C)(C)[C@@H]5CC[C@@]4(C)[C@]3(C)CC[C@@]2(NS(C)(=O)=O)CC1=O` [18-1, 3β-O-(3′,3′-Dimethylsuccinyl)-17β-methylsulfonylamino-21-oxolup-18-ene]: the IC50 reads like this: under setting [1], below 199 nM; under setting [2], below 199 nM.
As for `Cc1ccncc1C(=O)N[C@@]12CC[C@]3(C)[C@H](CC[C@@H]4[C@@]5(C)CC[C@H](OC(=O)CC(C)(C)C(=O)O)C(C)(C)[C@@H]5CC[C@]43C)C1=C(C(C)C)C(=O)C2` [19-49, 3β-O-(3′,3′-Dimethylsuccinyl)-17β-(4-methylpyridin-3-yl)amido-21-oxolup-18-ene], the IC50 under setting [1] is below 199 nM.
As to `CC(C)C1=C2C3CCC4[C@@]5(C)CC[C@H](OC(=O)CC(C)(C)C(=O)O)C(C)(C)C5CC[C@@]4(C)[C@]3(C)CC[C@@]2(NC(=O)N2CC[C@@H](NC(=O)OC(C)(C)C)C2)CC1=O` (stereo partly drawn) [17-40, 3β-O-(3′,3′-Dimethylsuccinyl)-17β-[((R)-3-tert-butyloxycarbonylamino-pyrrolidine-1-carbonyl)-amino]-21-oxolup-18-ene], under setting [1], the IC50 is below 199 nM.
Consider `CC(C)C1=C2C3CCC4[C@@]5(C)CC[C@H](OC(=O)CC(C)(C)C(=O)O)C(C)(C)C5CC[C@@]4(C)[C@]3(C)CC[C@@]2(NC(=O)OCC2CC2)CC1=O` (stereo partly drawn) [20-3, 3β-O-(3′,3′-Dimethylsuccinyl)-17β-cyclopropylmethoxycarbonylamino-21-oxolup-18-ene], for which the IC50 was below 199 nM under setting [1] and below 199 nM under setting [2].
Turning to `CC(C)C1=C2C3CCC4[C@@]5(C)CC[C@H](OC(=O)CC(C)(C)C(=O)O)C(C)(C)C5CC[C@@]4(C)[C@]3(C)CC[C@@]2(NC(=O)C(=O)N(C)C)CC1=O` (stereo partly drawn) [19-74, 3β-O-(3′,3′-Dimethylsuccinyl)-17β-(N′,N′-dimethyl-oxalamido)-21-oxolup-18-ene], the IC50 under setting [1] was below 199 nM.
Take `CC(C)C1=C2[C@H]3CC[C@@H]4[C@@]5(C)CC[C@H](OC(=O)[C@H]6CCC[C@@H](C(=O)O)C6)C(C)(C)[C@@H]5CC[C@@]4(C)[C@]3(C)CC[C@@]2(NC(=O)OC(C)(C)C)CC1=O` [14-2, 3β-O-(cis-Cyclohexane-3′-carboxylic acid-1′-carboxyl)-17β-[N-tert-butyloxycarbonyl-amino]-21-oxolup-18-ene]: the 50% inhibitory concentration (IC50) under setting [2] is above 1000 nM.
For the molecule `CN[C@@]12CC[C@]3(C)[C@H](CC[C@@H]4[C@@]5(C)CC[C@H](OC(=O)CC(C)(C)C(=O)O)C(C)(C)[C@@H]5CC[C@]43C)C1=C(C(C)C)C(=O)C2` [16-2, 3β-O-(3′,3′-Dimethylsuccinyl)-17β-(methylamino)-21-oxolup-18-ene], the IC50 under setting [1] is below 199 nM.
With `CC(C)C1=C2[C@H]3CC[C@@H]4[C@@]5(C)CC[C@H](OC(=O)CC(C)(C)C(=O)O)C(C)(C)[C@@H]5CC[C@@]4(C)[C@]3(C)CC[C@@]2(NC(=O)Nc2ccncn2)CC1=O` [17-46, 3β-O-(3′,3′-Dimethylsuccinyl)-17β-(N′-pyrimidin-4-yl-ureido)-21-oxolup-18-ene], under setting [1], the IC50 is below 199 nM.
Same read-out and setting: then `CC(C)C1=C2C3CCC4[C@@]5(C)CC[C@H](OC(=O)CC(C)(C)C(=O)O)C(C)(C)C5CC[C@@]4(C)[C@]3(C)CC[C@@]2(NC(=O)NC2CC2)CC1=O` (stereo partly drawn) [17-22, 3β-O-(3′,3′-Dimethylsuccinyl)-17β-(N′-cyclopropyl-ureido)-21-oxolup-18-ene], with below 199 nM; and `CC(C)C1=C2C3CCC4[C@@]5(C)CC[C@H](OC(=O)CC(C)(C)C(=O)O)C(C)(C)C5CC[C@@]4(C)[C@]3(C)CC[C@@]2(NC(=O)N2CCC(F)(F)C2)CC1=O` (stereo partly drawn) [17-58], with below 199 nM.
In the case of `CC(C)C1=C2[C@H]3CC[C@@H]4[C@@]5(C)CC[C@H](OC(=O)CC(C)(C)C(=O)O)C(C)(C)[C@@H]5CC[C@@]4(C)[C@]3(C)CC[C@@]2(NC(=O)CN2CCN(C)CC2)CC1=O` [19-54, 3β-O-(3′,3′-Dimethylsuccinyl)-17β-(4-methylpiperazine-1-acetamido)-21-oxolup-18-ene], the IC50 under setting [1] is below 199 nM.
The same measure, in the same setting: as for `CC(C)C1=C2C3CCC4[C@@]5(C)CC[C@H](OC(=O)CC(C)(C)C(=O)O)C(C)(C)C5CC[C@@]4(C)[C@]3(C)CC[C@@]2(NC(=O)C2CC3CCC(C2)O3)CC1=O` (stereo partly drawn) [19-70, 3β-O-(3′,3′-Dimethylsuccinyl)-17β-(8β-oxa-bicyclo[3.2.1]octane-3-amido)-21-oxolup-18-ene], the figure is below 199 nM; as for `Cc1ncccc1C(=O)N[C@@]12CC[C@]3(C)[C@H](CC[C@@H]4[C@@]5(C)CC[C@H](OC(=O)CC(C)(C)C(=O)O)C(C)(C)[C@@H]5CC[C@]43C)C1=C(C(C)C)C(=O)C2` [19-46, 3β-O-(3′,3′-Dimethylsuccinyl)-17β-(2-methylpyridin-3-yl)amido-21-oxolup-18-ene], below 199 nM; as for `CC(C)C1=C2C3CCC4[C@@]5(C)CC[C@H](OC(=O)CC(C)(C)C(=O)O)C(C)(C)C5CC[C@@]4(C)[C@]3(C)CC[C@@]2(NC(=O)OC2CCN(C)CC2)CC1=O` (stereo partly drawn) [20-17, 3β-O-(3′,3′-Dimethylsuccinyl)-17β-(1-methylpiperidine-4-oxycarbonylamino)-21-oxolup-18-ene], below 199 nM.
As for `CC(C)C1=C2[C@H]3CC[C@@H]4[C@@]5(C)CC[C@H](OC(=O)CC(C)(C)C(=O)O)C(C)(C)[C@@H]5CC[C@@]4(C)[C@]3(C)CC[C@@]2(NC(=O)OC(C)(C)C)CC1=O` [14-1, 3β-O-(3′,3′-Dimethylsuccinyl)-17β-tert-butyloxycarbonylamino-21-oxolup-18-ene], the IC50 reads like this: under setting [1], below 199 nM; under setting [2], below 199 nM.

Values taken from patent US8269026B2, “Lupane derivatives useful for treating HIV” (priority 2008, dated 2012).
